# Test results as given in patent publication US11590129B2, “Combination therapy with an antitumor alkaloid” (PHARMA MAR, S.A., priority 2010, dated 2023).
# Tests used:
# H460 tumors = test: Human lung tumor xenografts (H460) in athymic nude mice, tumor volume % T/C
# [1] = tested on: HGC-27 human gastric carcinoma cell line; test: cells; details: Homo sapiens, HGC-27, 72 h
# HGC-27 tumors = test: Human gastric tumor xenografts (HGC-27) in athymic nude mice, tumor volume % T/C; format: in vivo
# Description: Female athymic nude mice (Harlan Laboratories Models, S.L. (Barcelona, Spain) were utilized for all experiments. Animals were housed in individually ventilated cages, up to ten per cage in a 12-hour light-dark cycle at 21-23° C. and 40-60% humidity. The mice were allowed free access to irradiated standard rodent diet and sterilized water. Animals were acclimated for at least 5 days prior to tumor implantation with a tumor cell suspension.
# HGC-27 cells were grown at 37° C. with 5% CO2 in Iscove's modified Dulbeco's medium (IDMD).
# PM01183 was provided in the form of vials of lyophilized PM01183 cake which was reconstituted with water for infusion to a concentration of 0.2 mg/mL. The PM01183 stock solution was further diluted in 5% glucose solution for injection to the dosing formulation concentrations. Cisplatin and 5-fluorouracil were provided as solutions prepared by diluting the product with 0.9% saline solution for injection to the target final concentration.
# Dose level groups were administered either as single agents or in combination.
# Comparison of the median tumor volume in the treatment groups (T) to the median tumor volume in the control group (T/C×100%) was used for evaluation of the antitumor efficacy.
# [2] = PM01183 0.045 mg/kg iv days 0,7, 5-fluorouracil study
# [3] = PM01183 0.045 mg/kg iv days 0,7, cisplatin study
# [4] = PM01183 0.09 mg/kg iv days 0,7, 5-fluorouracil study
# [5] = PM01183 0.09 mg/kg iv days 0,7, cisplatin study
# [6] = PM01183 0.135 mg/kg iv days 0,7, 5-fluorouracil study
# [7] = PM01183 0.135 mg/kg iv days 0,7, cisplatin study
# [8] = PM01183 0.18 mg/kg iv days 0,7, 5-fluorouracil study
# [9] = PM01183 0.18 mg/kg iv days 0,7, cisplatin study
smiles,measurement,setting,value
COc1ccc2[nH]c3c(c2c1)CCN[C@]31CS[C@@H]2c3c(OC(C)=O)c(C)c4c(c3[C@H](COC1=O)N1[C@@H]2[C@H]2c3c(cc(C)c(OC)c3O)C[C@@H]([C@@H]1O)N2C)OCO4 [PM01183],% T/C on day 0,H460 tumors; PM01183 0.045 mg/kg,108.3%
same,% T/C on day 2,H460 tumors; PM01183 0.045 mg/kg,78.7%
same,% T/C on day 5,H460 tumors; PM01183 0.045 mg/kg,61.2%
same,% T/C on day 7,H460 tumors; PM01183 0.045 mg/kg,67.2%
same,% T/C on day 9,H460 tumors; PM01183 0.045 mg/kg,78.8%
same,% T/C on day 12,H460 tumors; PM01183 0.045 mg/kg,87.9%
same,% T/C on day 0,H460 tumors; PM01183 0.09 mg/kg,116.9%
same,% T/C on day 2,H460 tumors; PM01183 0.09 mg/kg,83.1%
same,% T/C on day 5,H460 tumors; PM01183 0.09 mg/kg,83.9%
same,% T/C on day 7,H460 tumors; PM01183 0.09 mg/kg,76.9%
same,% T/C on day 9,H460 tumors; PM01183 0.09 mg/kg,80.6%
same,% T/C on day 12,H460 tumors; PM01183 0.09 mg/kg,84.9%
same,% T/C on day 0,H460 tumors; PM01183 0.135 mg/kg,117.6%
same,% T/C on day 2,H460 tumors; PM01183 0.135 mg/kg,77.4%
same,% T/C on day 5,H460 tumors; PM01183 0.135 mg/kg,67.5%
same,% T/C on day 7,H460 tumors; PM01183 0.135 mg/kg,71.7%
same,% T/C on day 9,H460 tumors; PM01183 0.135 mg/kg,66.7%
same,% T/C on day 12,H460 tumors; PM01183 0.135 mg/kg,52.9%
same,% T/C on day 0,H460 tumors; PM01183 0.18 mg/kg,114.4%
same,% T/C on day 2,H460 tumors; PM01183 0.18 mg/kg,79.6%
same,% T/C on day 5,H460 tumors; PM01183 0.18 mg/kg,74.7%
same,% T/C on day 7,H460 tumors; PM01183 0.18 mg/kg,75.0%
same,% T/C on day 9,H460 tumors; PM01183 0.18 mg/kg,69.1%
same,% T/C on day 12,H460 tumors; PM01183 0.18 mg/kg,64.9%
same,IC50,[1],0.85 nM
same,% T/C on day 0,HGC-27 tumors; [2],99.9%
same,% T/C on day 2,HGC-27 tumors; [2],84.3%
same,% T/C on day 5,HGC-27 tumors; [2],103.2%
same,% T/C on day 7,HGC-27 tumors; [2],104.6%
same,% T/C on day 9,HGC-27 tumors; [2],103.5%
same,% T/C on day 12,HGC-27 tumors; [2],101.6%
same,% T/C on day 14,HGC-27 tumors; [2],85.0%
same,% T/C on day 0,HGC-27 tumors; [3],98.9%
same,% T/C on day 3,HGC-27 tumors; [3],85.9%
same,% T/C on day 5,HGC-27 tumors; [3],83.1%
same,% T/C on day 7,HGC-27 tumors; [3],92.1%
same,% T/C on day 10,HGC-27 tumors; [3],76.4%
same,% T/C on day 12,HGC-27 tumors; [3],81.6%
same,% T/C on day 14,HGC-27 tumors; [3],88.5%
same,% T/C on day 0,HGC-27 tumors; [4],100.6%
same,% T/C on day 2,HGC-27 tumors; [4],90.5%
same,% T/C on day 5,HGC-27 tumors; [4],87.6%
same,% T/C on day 7,HGC-27 tumors; [4],83.4%
same,% T/C on day 9,HGC-27 tumors; [4],82.6%
same,% T/C on day 12,HGC-27 tumors; [4],76.7%
same,% T/C on day 14,HGC-27 tumors; [4],67.7%
same,% T/C on day 0,HGC-27 tumors; [5],98.6%
same,% T/C on day 3,HGC-27 tumors; [5],67.5%
same,% T/C on day 5,HGC-27 tumors; [5],67.9%
same,% T/C on day 7,HGC-27 tumors; [5],66.1%
same,% T/C on day 10,HGC-27 tumors; [5],70.2%
same,% T/C on day 12,HGC-27 tumors; [5],60.3%
same,% T/C on day 14,HGC-27 tumors; [5],65.0%
same,% T/C on day 0,HGC-27 tumors; [6],100.2%
same,% T/C on day 2,HGC-27 tumors; [6],81.5%
same,% T/C on day 5,HGC-27 tumors; [6],58.7%
same,% T/C on day 7,HGC-27 tumors; [6],61.4%
same,% T/C on day 9,HGC-27 tumors; [6],60.2%
same,% T/C on day 12,HGC-27 tumors; [6],54.6%
same,% T/C on day 14,HGC-27 tumors; [6],55.1%
same,% T/C on day 0,HGC-27 tumors; [7],97.9%
same,% T/C on day 3,HGC-27 tumors; [7],71.6%
same,% T/C on day 5,HGC-27 tumors; [7],59.9%
same,% T/C on day 7,HGC-27 tumors; [7],47.8%
same,% T/C on day 10,HGC-27 tumors; [7],39.3%
same,% T/C on day 12,HGC-27 tumors; [7],37.1%
same,% T/C on day 14,HGC-27 tumors; [7],38.3%
same,% T/C on day 0,HGC-27 tumors; [8],99.6%
same,% T/C on day 2,HGC-27 tumors; [8],78.6%
same,% T/C on day 5,HGC-27 tumors; [8],50.9%
same,% T/C on day 7,HGC-27 tumors; [8],43.3%
same,% T/C on day 9,HGC-27 tumors; [8],41.0%
same,% T/C on day 12,HGC-27 tumors; [8],33.0%
same,% T/C on day 14,HGC-27 tumors; [8],29.2%
same,% T/C on day 0,HGC-27 tumors; [9],99.6%
same,% T/C on day 3,HGC-27 tumors; [9],65.9%
same,% T/C on day 5,HGC-27 tumors; [9],55.6%
same,% T/C on day 7,HGC-27 tumors; [9],38.7%
same,% T/C on day 10,HGC-27 tumors; [9],33.5%
same,% T/C on day 12,HGC-27 tumors; [9],24.3%
same,% T/C on day 14,HGC-27 tumors; [9],24.3%
